Source: PubChem BioAssay (NCI)
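In this assay, cells in 96-well plates receive the compound at five concentrations for 48 hours. Endpoints are linearly interpolated between the surrounding concentrations. TGI marks complete inhibition of growth.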

What was measured:
Assay in all cases: NCI-60 cell line screen, 48 h
[1] = test system: OVCAR-8 ovarian
[2] = test system: MOLT-4 leukemia
[3] = test system: OVCAR-3 ovarian
[4] = test system: HCT-116 colon
[5] = test system: A498 renal
[6] = test system: T-47D breast
[7] = test system: SK-OV-3 ovarian
[8] = test system: SK-MEL-28 melanoma
[9] = test system: TK-10 renal
[10] = test system: SF-539 CNS
[11] = test system: HCT-15 colon
[12] = test system: MDA-N

| SMILES | TGI [1] [µM] | TGI [2] [µM] | TGI [3] [µM] | TGI [4] [µM] | TGI [5] [µM] | TGI [6] [µM] | TGI [7] [µM] | TGI [8] [µM] | TGI [9] [µM] | TGI [10] [µM] | TGI [11] [µM] | TGI [12] [µM] |
| --- | --- | --- | --- | --- | --- | --- | --- | --- | --- | --- | --- | --- |
| Brc1ccc(-c2ccc(-c3ccc(Br)s3)s2)s1 | > 100 | > 100 | > 100 | > 100 | > 100 | > 100 | > 100 | > 100 | > 100 | > 100 | > 100 | > 100 |
| CCOC(=O)c1cc(-c2ccc(OC)c(OC)c2)cn1C | > 10 | > 10 | > 10 | > 10 | > 10 | > 10 | > 10 | > 10 | > 10 | > 10 | > 10 | > 10 |
| CC1OC(OC2C(CO)OC(O[C@H]3CC[C@@]4(C)C(=CC[C@H]5[C@@H]6C[C@@H]7O[C@](O)(CC[C@@H](C)COC8OC(CO)C(O)C(O)C8O)[C@@H](C)[C@@H]7[C@@]6(C)CC[C@@H]54)C3)C(OC3OC(C)C(O)C(O)C3O)C2O)C(O)C(O)C1O (stereo not given in full) | 4.09 | 3.71 | 29.8 | 4.76 | > 100 | 17.9 | 7.34 | 7.55 | 22.8 | 4.21 | 3.91 | 8.67 |
| OC1(c2ccc(Cl)cc2)c2ccccc2C2=Nc3ccccc3CN21 (stereo not given) | 38.2 | > 100 | 9.77 | 19 | > 72.9 | > 100 | > 100 | 98.3 | > 100 | > 100 | > 100 | > 100 |
| COC(=O)c1c(C)nc(C)c(N=O)c1-c1ccccc1C(F)(F)F | 35.6 | > 100 | 31.3 | 31.8 | > 100 | 39.5 | > 100 | 28.4 | 30 | 45.8 | 45.8 | 43.6 |
